ChEMBL document CHEMBL1135953, “bis-Azaaromatic quaternary ammonium analogues: ligands for alpha4beta2* and alpha7* subtypes of neuronal nicotinic receptors” (Bioorg Med Chem Lett, 2002)

Key:
[1] = biological target: Neuronal acetylcholine receptor subunit alpha-7 (Rattus norvegicus, UniProt Q05941); experiment: Binding affinity nicotinic acetylcholine receptor alpha-7 was evaluated by its ability to inhibit [3H]methyllycaconitine ([3H]-MLA) binding to rat brain membranes; set-up: species or system Membrane
[2] = biological target: Neuronal acetylcholine receptor; alpha4/beta2 (Rattus norvegicus, UniProt P09483+P12390); experiment: Binding affinity for nicotinic acetylcholine receptor alpha4-beta2 was evaluated by its ability to inhibit [3H]NIC binding to rat brain membranes; set-up: species or system Membrane
Rattus norvegicus = organism: Rattus norvegicus; experiment: Compound was evaluated for inhibiting NIC-evoked [86Rb+] efflux from rat thalamic synaptosomes; assay type: functional; details: Brain

Chain of Neuronal acetylcholine receptor; alpha4/beta2 (P09483 whole entry): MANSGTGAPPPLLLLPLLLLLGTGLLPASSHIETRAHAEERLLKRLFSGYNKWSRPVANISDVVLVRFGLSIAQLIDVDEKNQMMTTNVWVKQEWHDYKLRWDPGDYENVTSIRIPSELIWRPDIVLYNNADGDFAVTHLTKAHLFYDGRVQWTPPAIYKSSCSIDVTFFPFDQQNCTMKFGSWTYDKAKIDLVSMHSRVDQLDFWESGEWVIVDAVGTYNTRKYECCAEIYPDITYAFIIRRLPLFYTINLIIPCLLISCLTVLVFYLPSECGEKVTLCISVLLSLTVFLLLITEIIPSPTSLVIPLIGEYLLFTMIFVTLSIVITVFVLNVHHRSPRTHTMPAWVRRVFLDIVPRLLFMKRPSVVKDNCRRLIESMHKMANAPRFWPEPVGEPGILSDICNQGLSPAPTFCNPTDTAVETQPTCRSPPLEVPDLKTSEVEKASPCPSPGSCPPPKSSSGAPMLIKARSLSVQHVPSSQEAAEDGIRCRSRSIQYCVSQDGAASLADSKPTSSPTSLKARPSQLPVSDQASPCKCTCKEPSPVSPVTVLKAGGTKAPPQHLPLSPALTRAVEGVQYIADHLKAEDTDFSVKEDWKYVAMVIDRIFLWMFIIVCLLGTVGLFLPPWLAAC
Chain of Neuronal acetylcholine receptor; alpha4/beta2 (P12390 whole entry): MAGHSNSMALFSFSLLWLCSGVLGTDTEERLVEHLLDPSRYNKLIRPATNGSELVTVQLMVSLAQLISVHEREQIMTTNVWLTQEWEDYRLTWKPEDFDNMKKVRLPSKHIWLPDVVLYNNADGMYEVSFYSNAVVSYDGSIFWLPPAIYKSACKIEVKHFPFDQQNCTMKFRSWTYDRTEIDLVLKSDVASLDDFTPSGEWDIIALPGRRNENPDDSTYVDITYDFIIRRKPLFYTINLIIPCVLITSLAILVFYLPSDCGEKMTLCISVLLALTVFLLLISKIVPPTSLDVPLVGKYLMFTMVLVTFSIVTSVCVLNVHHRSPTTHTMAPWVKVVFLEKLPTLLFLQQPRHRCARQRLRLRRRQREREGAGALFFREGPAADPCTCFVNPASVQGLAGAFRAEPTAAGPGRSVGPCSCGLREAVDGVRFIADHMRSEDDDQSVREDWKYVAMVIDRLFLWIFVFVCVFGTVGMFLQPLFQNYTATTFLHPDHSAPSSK
Chain of Neuronal acetylcholine receptor subunit alpha-7 (Q05941 whole entry): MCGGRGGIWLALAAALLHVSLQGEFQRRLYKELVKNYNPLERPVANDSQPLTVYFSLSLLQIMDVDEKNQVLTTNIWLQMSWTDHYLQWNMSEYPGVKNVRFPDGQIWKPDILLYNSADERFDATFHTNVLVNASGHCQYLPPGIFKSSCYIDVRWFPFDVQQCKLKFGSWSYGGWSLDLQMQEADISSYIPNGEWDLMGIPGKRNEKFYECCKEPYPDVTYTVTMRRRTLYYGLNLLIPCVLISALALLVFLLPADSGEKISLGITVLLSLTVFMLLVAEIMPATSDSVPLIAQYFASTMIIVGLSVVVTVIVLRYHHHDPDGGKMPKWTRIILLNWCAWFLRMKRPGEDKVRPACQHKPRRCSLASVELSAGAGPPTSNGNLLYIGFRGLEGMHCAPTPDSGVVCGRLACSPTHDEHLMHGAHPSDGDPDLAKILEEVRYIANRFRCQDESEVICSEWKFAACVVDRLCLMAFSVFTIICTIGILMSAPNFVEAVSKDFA

| Structure (SMILES) | Ki [1] [µM] | Ki [2] [µM] | IC50 (Rattus norvegicus) [µM] |
| --- | --- | --- | --- |
| c1cc[n+](CCCCC[n+]2ccccc2)cc1 | > 100 | > 100 | – |
| c1ccc2c[n+](CCCCCCCC[n+]3ccc4ccccc4c3)ccc2c1 | 11.7 | 65.5 | – |
| c1cc[n+](CCCCCC[n+]2ccccc2)cc1 | > 100 | – | – |
| c1ccc2c(c1)ccc[n+]2CCCCCCCCCCCC[n+]1cccc2ccccc21 | – | > 100 | – |
| CN1CCC[C@H]1c1ccc[n+](CCCCCC[n+]2cccc([C@@H]3CCCN3C)c2)c1 | > 100 | – | – |
| c1ccc2c[n+](CCCCCCCCC[n+]3ccc4ccccc4c3)ccc2c1 | 5.95 | 7.89 | – |
| c1ccc2c[n+](CCCCCCCCCCC[n+]3ccc4ccccc4c3)ccc2c1 | 5.46 | – | – |
| c1ccc2c(c1)ccc[n+]2CCCCCCCCC[n+]1cccc2ccccc21 | 3.58 | 22.5 | – |
| c1cc[n+](CCCCCCCC[n+]2ccccc2)cc1 | > 100 | 34.3 | – |
| c1ccc2c(c1)ccc[n+]2CCCCCCCCCCC[n+]1cccc2ccccc21 | 2.58 | 37.8 | – |
| CN1CCC[C@H]1c1ccc[n+](CCCCCCCCCCC[n+]2cccc([C@@H]3CCCN3C)c2)c1 | > 100 | 0.43 | 5.22 |
| CN1CCC[C@H]1c1ccc[n+](CCCCCCCC[n+]2cccc([C@@H]3CCCN3C)c2)c1 | > 100 | 1.54 | – |
| c1ccc2c[n+](CCCCCCCCCC[n+]3ccc4ccccc4c3)ccc2c1 | 7.25 | > 100 | – |
| c1cc[n+](CCCCCCCCC[n+]2ccccc2)cc1 | > 100 | – | – |
| c1cc[n+](CCCCCCCCCC[n+]2ccccc2)cc1 | > 100 | – | – |
| CN1CCC[C@H]1c1ccc[n+](CCCCCCCCCC[n+]2cccc([C@@H]3CCCN3C)c2)c1 | > 100 | 0.33 | 3.76 |

| Structure (SMILES) | Ki [1] [µM] | Ki [2] [µM] | IC50 (Rattus norvegicus) [µM] |
| --- | --- | --- | --- |
| COc1cc2c3cc1Oc1cc(ccc1O)C[C@@H]1c4c(cc(OC)c(O)c4Oc4ccc(cc4)C[C@@H]3N(C)CC2)CC[N+]1(C)C | 4.79 | 9.72 | – |
| c1ccc2c(c1)ccc[n+]2CCCCCCCC[n+]1cccc2ccccc21 | 2.39 | > 100 | – |
| CCCCCCCC[n+]1cccc([C@@H]2CCCN2C)c1 | 23.6 | – | – |
| CN1CCC[C@H]1c1ccc[n+](CCCCCCCCC[n+]2cccc([C@@H]3CCCN3C)c2)c1 | > 100 | 5.03 | – |
| c1ccc2c(c1)ccc[n+]2CCCCCCCCCC[n+]1cccc2ccccc21 | 7.81 | > 100 | – |
| CN1CCC[C@H]1c1ccc[n+](CCCCCCCCCCCC[n+]2cccc([C@@H]3CCCN3C)c2)c1 | > 100 | – | – |
| c1ccc2c(c1)ccc[n+]2CCCCCC[n+]1cccc2ccccc21 | – | 39.3 | – |
| c1cc[n+](CCCCCCCCCCC[n+]2ccccc2)cc1 | 57 | 14 | – |
| Cc1ccc[n+](CCCCCCCCCCC[n+]2cccc(C)c2)c1 | > 100 | – | – |
| Cc1ccc[n+](CCCCCCCCC[n+]2cccc(C)c2)c1 | > 100 | 79.9 | – |
| Cc1ccc[n+](CCCCCC[n+]2cccc(C)c2)c1 | > 100 | > 100 | – |
| Cc1ccc[n+](CCCCCCCCCCCC[n+]2cccc(C)c2)c1 | > 100 | 48.6 | – |
| Cc1ccc[n+](CCCCCCCC[n+]2cccc(C)c2)c1 | > 100 | > 100 | – |
| Cc1ccc[n+](CCCCCCCCCC[n+]2cccc(C)c2)c1 | > 100 | > 100 | – |
| CCCCCCCCCC[n+]1cccc([C@@H]2CCCN2C)c1 | > 100 | 0.064 | – |
| C[N+](C)(C)CCCCCC[N+](C)(C)C [HEXAMETHONIUM CHLORIDE] | > 100 | 21.7 | – |
